Results reported in ChEMBL document CHEMBL1133460, “Synthesis and biological evaluation of certain alpha,beta-unsaturated ketones and their corresponding fused pyridines as antiviral and cytotoxic agents” (J Med Chem, 2000).
Values joined by “and” are separate entries in the source; they are usually repeats but may differ in a detail not shown here. Identical values can stand only once.

Experiments:
[1] = tested on: Tumor cell line; experiment: In vitro for median growth inhibitory concentration against non small lung cancer cell lines; type: functional; settings: Homo sapiens
[2] = tested on: Tumor cell line; experiment: In vitro for median growth inhibitory concentration against breast cancer cell lines; type: functional; settings: Homo sapiens
[3] = tested on: Human immunodeficiency virus 1; experiment: In vitro effective concentration against HIV-1 cytopathic effect in T4 cells; Inactive; type: functional, organism-based
[4] = tested on: Tumor cell line; experiment: In vitro for median growth inhibitory concentration against prostate cancer cell lines; type: functional; settings: Homo sapiens
[5] = tested on: Tumor cell line; experiment: In vitro for median growth inhibitory concentration against melanoma cell lines; type: functional; settings: Homo sapiens
[6] = tested on: Panel prostate (Carcinoma cell lines); experiment: In vitro growth inhibitory concentration against prostate cancer cell lines; type: functional; settings: Homo sapiens
[7] = tested on: Ovarian cancer cell line; experiment: In vitro growth inhibitory concentration against ovarian cancer cell lines; type: functional; settings: Homo sapiens
[8] = Full panel mean-graph midpoint (MG-MID)
[9] = tested on: Panel leukemia (Carcinoma cell lines); experiment: In vitro growth inhibitory concentration against leukemia tumor cell lines; type: functional; settings: Homo sapiens
[10] = tested on: Panel CNS (Carcinoma cell lines); experiment: In vitro growth inhibitory concentration against CNS cancer cell lines; type: functional; settings: Homo sapiens
[11] = tested on: Tumor cell line; experiment: In vitro for median growth inhibitory conc. against leukemia (compounds full panel MG-MID/leukemia subpanel MG-MID); type: functional; settings: Homo sapiens
[12] = tested on: MT4; experiment: In vitro inhibitory activity against uninfected T4 cells; type: functional, cell-based; settings: Homo sapiens
[13] = tested on: Breast cancer cell line; experiment: In vitro growth inhibitory concentration against breast cancer cell lines; type: functional; settings: Homo sapiens
[14] = Full panel mean-graph midpoint (MG-MID).
[15] = tested on: Panel renal (Carcinoma cell lines); experiment: In vitro growth inhibitory concentration against renal cancer cell lines; type: functional; settings: Homo sapiens
[16] = tested on: Tumor cell line; experiment: In vitro for growth inhibitory concentration against non small lung cancer cell lines; type: functional; settings: Homo sapiens
[17] = tested on: Panel melanoma (Carcinoma cell lines); experiment: In vitro growth inhibitory concentration against melanoma cancer cell lines; type: functional; settings: Homo sapiens
[18] = tested on: Tumor cell line; experiment: In vitro for median growth inhibitory concentration against ovarian cancer cell lines; type: functional; settings: Homo sapiens
[19] = In vitro growth inhibitory concentration against colon cancer tumor cell lines; type: functional; settings: Homo sapiens
[20] = tested on: Tumor cell line; experiment: In vitro for median growth inhibitory concentration against CNS cancer cell lines; type: functional; settings: Homo sapiens
[21] = tested on: Tumor cell line; experiment: In vitro for median growth inhibitory concentration against renal cancer cell lines; type: functional; settings: Homo sapiens
[22] = tested on: Tumor cell line; experiment: In vitro for median growth inhibitory concentration against colon cancer cell lines; type: functional; settings: Homo sapiens
[23] = tested on: Ovarian cancer cell line; experiment: In vitro median growth inhibitory concentration against ovarian cancer cell lines; type: functional; settings: Homo sapiens
[24] = In vitro median growth inhibitory concentration against colon cancer cell lines; type: functional; settings: Homo sapiens
[25] = tested on: Breast cancer cell line; experiment: In vitro median growth inhibitory concentration against breast cancer cell lines; type: functional; settings: Homo sapiens
[26] = tested on: Panel prostate (Carcinoma cell lines); experiment: In vitro median growth inhibitory concentration against prostate cancer cell lines; type: functional; settings: Homo sapiens
[27] = tested on: NSCLC; experiment: In vitro growth inhibitory concentration against non-small-cell lung cancer; type: functional; settings: Homo sapiens
[28] = tested on: Panel leukemia (Carcinoma cell lines); experiment: In vitro median growth inhibitory conc. against leukemia was estimated.; type: functional; settings: Homo sapiens
[29] = tested on: Panel melanoma (Carcinoma cell lines); experiment: In vitro median growth inhibitory concentration against melanoma cell lines; type: functional; settings: Homo sapiens
[30] = tested on: NSCLC; experiment: In vitro median growth inhibitory concentration against non-small-cell lung cancer; type: functional; settings: Homo sapiens
[31] = tested on: Panel renal (Carcinoma cell lines); experiment: In vitro median growth inhibitory concentration against renal cancer cell lines; type: functional; settings: Homo sapiens
[32] = tested on: Panel CNS (Carcinoma cell lines); experiment: In vitro median growth inhibitory concentration against CNS cancer cell lines; type: functional; settings: Homo sapiens
[33] = species: Homo sapiens; experiment: Selectivity ratio between the full panel MG-MID and leukemia subpanel MG-MID was determined.; type: functional

Compound | GI50 [1] [µM] | EC50 [3] | GI50 [4] [µM] | GI50 [5] [µM] | TGI [6] [µM] | TGI [7] [µM] | MG-MID [8] | TGI [9] [µM] | TGI [10] [µM] | GI50 [11] [µM] | IC50 [12] [µM] | TGI [13] [µM] | MG-MID [14] [µM] | TGI [15] [µM] | TGI [16] [µM] | TGI [17] [µM] | GI50 [18] [µM] | TGI [19] [µM] | GI50 [20] [µM] | GI50 [21] [µM] | other results
CN1CC2=C(OC(N)=C(C#N)C2c2cccs2)/C(=C/c2cccs2)C1 (stereo not given) | 16.3 | Not Active | 13.5 | 36.3 | 90.9 | 73.2 | 57.8 µM | 27.6 | > 100 | 3.2 | 9 | 57.7 | 11.6 | 81.6 | 75.5 | 87 | 25 | 87.3 | 42.2 | 32.5 | TGI [2]: 27.9 µM; GI50 [22]: 17.3 µM
CN1C/C(=C\c2cccs2)c2nc(O)c(C#N)c(-c3cccs3)c2C1 |  | Not Active |  |  |  |  |  |  |  |  | > 200 |  |  |  |  |  |  |  |  |  | 
CN1C/C(=C\c2cccs2)C(O)/C(=C/c2cccs2)C1 (stereo not given) |  | Not Active |  |  | > 100 | > 100 | 77.1 µM and 97.7 µM | 78.1 | > 100 |  | 126 | 96.8 |  | > 100 |  | > 100 |  | > 100 |  |  | GI50 [23]: 81.4 µM; GI50 [24]: 85.8 µM; GI50 [25]: 84.3 µM; GI50 [26]: > 100 µM; TGI [27]: > 100 µM; GI50 [28]: 32.5 µM; GI50 [29]: 92.5 µM; GI50 [30]: 83.9 µM; GI50 [31]: 96.2 µM; GI50 [32]: > 100 µM; Ratio [33]: 2.4
Cc1ccc(/C=C2\CN(C)CC3=C2OC(N)=C(C#N)C3c2ccc(C)cc2)cc1 (stereo not given) | 3.3 | Not Active | 29.4 | 26.6 | 66.2 | 55.7 | 51.1 µM | 17.9 | 83.6 | 5.1 | 11.1 | 70.1 | 16.9 | 54.5 | 54.1 | 59.5 | 15.5 | 43.9 | 37.7 | 18.1 | TGI [2]: 30.7 µM; GI50 [22]: 16.6 µM
COc1ccc(/C=C2\CN(C)CC3=C2OC(N)=C(C#N)C3c2ccc(OC)cc2)cc1 (stereo not given) | 36.7 | Not Active | 79.4 | 70.7 | > 100 | > 100 | 85.6 µM | 49.9 | > 100 | 9.1 | 30.4 | 93.8 | 33.3 | 96.9 | 95.5 | 93.9 | 38.1 | 97.4 | 60.5 | 40.4 | GI50 [2]: 48.6 µM; GI50 [22]: 41.2 µM
